Laboratory results reported in patent US20220087974A1, “METHOD AGAINST CORONAVIRUS INFECTION WITH COUMARIN-DERIVED COMPOUND” (CHANG GUNG UNIVERSITY, priority 2020, published 2022).

How the values were obtained:
[1] = tested on: Envelope (E) gene of SARS-CoV-2; assay: Quantitative determination of viral gene expression (real-time PCR of E gene); assay type: cell-based, severe acute respiratory syndrome coronavirus 2; settings: Vero E6 cells pretreated at 15.625 nM and 62.5 nM (experimental groups 2 to 3), m.o.i. 0.01, versus pathological control group
SARS-CoV-2 = assay: Viral plaque reduction assay; assay type: cell-based; settings: SARS-CoV-2-infected Vero E6 cells, m.o.i. 0.01, HP520-2, 72 hours, versus pathological control group
HcoV-229E = assay: MTT cell viability assay of HcoV-229E-infected Vero E6 cells; assay type: cell-based, human coronavirus 229E
Description: Vero E6 cells were divided into 5 groups, including one normal control group, one pathological control group, and three experimental groups (i.e., experimental groups 1 to 3). Each group of the Vero E6 cells was incubated in a respective well of a 96-well culture plate containing 100 μL of E2 medium at 2×10^4 cells/well, followed by cultivation in an incubator (37° C., 5% CO2) for 24 hours. Afterwards, the culture medium in each well was removed, and the cells of the experimental groups 1 to 3 were pretreated with 8-benzoyl-4-methyl-9-phenyl-furo[2,3-h]chromen-2-one (i.e., HP520-2) (Cat. No. STL-513320, Vitas-M Laboratory) respectively at concentrations of 20 nM, 40 nM, and 80 nM, followed by adding 150 μL of the HcoV-229E solution prepared in section 2 of General Experimental Materials. […]
Each group was cultivated in an incubator (37° C., 5% CO2) for 96 hours. […] After cultivation in an incubator (37° C., 5% CO2) for 2 hours, the respective resultant cell culture was added with 150 μL of dimethyl sulfoxide (DMSO), followed by subjecting the mixture thus obtained to determination of absorbance at a wavelength of 590 nm (OD590) by an ELISA reader.
The cell viability rate (%) was calculated using the following Equation (I): […]

Cc1cc(=O)oc2c1ccc1oc(C(=O)c3ccccc3)c(-c3ccccc3)c12 [HP520-2, 8-benzoyl-4-methyl-9-phenyl-furo[2,3-h]chromen-2-one]
relative RNA expression level of E gene of SARS-CoV-2 [1]: significantly lower than that of the pathological control group | number of viral plaques (SARS-CoV-2): lower than that determined in the pathological control group | EC50 (HcoV-229E; Human coronavirus 229E, Vero C1008, Vero E6 cells, HcoV-229E, 96 hours, MTT, n=3, mean±SD): 39 ± 15 nM | cell viability rate (HcoV-229E; Vero E6 cells pretreated at 20 nM, 40 nM, 80 nM, versus pathological control group, FIG. 1): significantly higher than that determined in the pathological control group
